Tests used:
Type in all cases: cell-based
[1] = test system: chick periosteal osteogenesis (CPO) cultures; test: Histological evaluation of bone formation in chick periosteal osteogenesis (CPO) cultures
Protocol: (§1) In this experiment, the chick periosteal osteogenesis (CPO) model was used to determine if bone loss is induced by dioxin. The CPO model has been described in detail previously (Nijweide, Proc. Kon. Ned. Akad. Wet. 1975. C78:410-417) and was prepared for the purposes of this experiment as set out below.
(§2) Following sacrifice, two triangular calvarial explants were removed by cutting along the central suture, transversely along the posterior suture and laterally above the eye in 17-day-old embryonic chicks. The ectocranial periosteum (outer curved surface) was peeled off using forceps under microscopic magnification and folded so that the surface originally facing bone was in apposition to itself as described previously (Tenenbaum et al., Calcif Tissue Int. 34:76-79). The folded explant was then placed on a Millipore filter (HA 0.45 μm), which was transferred onto a stainless steel grid resting in the center well of an organ culture dish (Falcon Plastics, Lincoln Park, N.J., USA) that was filled with culture media to a level such that the culture was supported at the gas-liquid interface (˜1.5 ml of media). Three cultures were placed in each dish which was then covered and incubated at 37° C. in a humidified atmosphere containing 5% CO2 in air. Media changes occurred on days 2 and 4, and the medium was comprised of BGJb medium (Fitton-Jackson Modification) with L-glutamine (Gibco, Grand Island, N.Y., USA) and supplemented with 2% antibiotic (10,000 units/ml Penicillin G sodium, 10,000 μg/ml Streptomycin sulfate in 0.85% saline) (Gibco), 10% fetal calf serum (Gibco), 10^−7M dexamethasone (Sigma, St. Louis, Mo., USA), 10 mM β-glycerophosphate, and 300 μg/ml L-ascorbate (Gibco).
For the purposes of this investigation, the effects of a potent aryl hydrocarbon, TCDD (2,3,7,8-tetrachlorodibenzo-p-dioxin or dioxin) on the early events occurring during osteogenesis were determined. The CPO model traverses a number of phases of osteogenesis. […]

[2] = test system: chick periosteal osteogenesis (CPO) cultures; test: Alkaline phosphatase activity (APA) in CPO cultures
Protocol: as §1, §2
For the purposes of this investigation, the effects of a potent aryl hydrocarbon, TCDD (2,3,7,8-tetrachlorodibenzo-p-dioxin or dioxin) on the early events occurring during osteogenesis were determined. The CPO model traverses a number of phases of osteogenesis. Therefore, it was possible to design temporal or “window” experiments in order to determine the phases of osteogenesis that were sensitive to TCDD and/or resveratrol. […] All cultures were maintained for the entire 6-day period. The compounds were administered over four different temporal phases, as outlined below in the time-line diagram: a) days 0-6; b) days 0-2; c) days 2-4 or d) days 4-6 (Note: all cultures were stopped at 6 days). Results were compared to e) vehicle alone over days 0-6. [drawing 1]
On day 6, the culture dishes were placed on ice and individual cultures were transferred to separate test tubes and stored at −20° C. for further analysis.
CPO cultures were assayed for AP activity using paranitrophenol-phosphate (pN-p) as the substrate (Demetriou et al. J Biol Chem. 1996. 271(22)12755-61). The intensity of the colour change was evaluated using a Titertek® Multiskan® MCC/340 Spectrophotometer (Flow Laboratories, Mississauga, ON, Canada) and compared to a standard curve obtained from a serial dilution of 10 mM pN with bicarbonate buffer (pH 7.4) in flat bottomed Titertek 96-well plates as described previously (Demetriou et al., 1996, supra). The reaction was stopped with 100 μl of 0.2N NaOH and pN-p levels read at 405 nm on the Titertek. Calcium incorporation was assayed in the pellets produced from centrifugation of the homogenized CPO cultures following hydrolysis in 500 μl of 0.5N HCl and then measured using atomic absorption spectrophotometry (Sukhu et al. Endocrinology. 1997. 138 (8):3269-75).

[3] = test system: rat SBMC (stromal bone marrow cell) line; test: Mineralization (Alizarin Red staining) in rat SBMC line
Protocol: Cells for the rat SBMC model were obtained from Dr. Sandu Pitaru (Tel Aviv University, Israel) and maintained in T25 tissue culture flasks (Sarstedt, Newton, N.C., USA) in a medium composed of αMEM+RNA+DNA+antibiotic supplemented with 10% fetal calf serum, 10 mM β-glycerophosphate, 10^−8M dexamethasone, 50 μg/ml vitamin C and 3 ng/ml fibroblast growth factor. The media were changed every 48 hours and the cells subcultured when almost confluent (approximately every 72 hrs). Cells were grown for a period of 1-2 weeks to allow for formation of mineralized bone nodules.
SBMC cultures were assayed for AP activity using paranitrophenol-phosphate (pN-p) as the substrate as described above for CPO cultures. In some cases, AP activity was also measured using direct staining of SBMC cultures in 96 well plates as described previously (Tenenbaum et al., Anat Rec. 1995. 242(2):200-10). Mineralization in the SBMC cultures was determined using Alizarin Red staining in situ that was assessed with the Titertek spectrophotometer set at 525 nm.

[4] = test system: rat bone marrow cells (RBMC); test: APA in primary rat bone marrow cell (RBMC) bone formation system
Text: Rat bone marrow cells were derived from femoral bones removed from adult male Wistar rats as described previously (Maniatopoulos et al., Cell Tissue Res, 1988, 254(2):317-330). These cells, grown in the presence of dexamethasone, vitamin C and b-glycerophosphate, differentiated into osteoblasts as shown by increases in APA and the production of mineralized bone nodules within 12-14 days. For the purposes of this investigation, we analyzed 10-16 day cultures for APA, as this was a reliable marker for osteoblastic differentiation in this system.

Row | Structure (SMILES) | bone formation (histology) ([1]; TCDD-treated CPO cultures, FIG. 1B) | reduction in AP activity ([2]; 10^−9M TCDD alone during days 0-2, p<0.05 vs. vehicle) [%] | change in AP activity ([2]; 10^−9M TCDD alone during days 2-4 or 4-6) | reduction in AP activity versus vehicle alone ([2]; 10^−9M TCDD over a 6-day period) [%] | reduction in mineralization (Alizarin Red Staining), dose dependence ([3]; TCDD 4.12×10^−11M to 1.52×10^−12M) | decrease in mineralization ([3]; in the presence of TCDD) | inhibition at 0.001 µM ([4]; Rattus norvegicus, Bone marrow cell, read-out: inhibition of osteodifferentiation as measured by APA, compared to alcohol-treated control) [%] | reversal of TCDD effect on bone formation (histology) ([1]; cultures treated with both TCDD and resveratrol, FIG. 1D) | bone formation (histology) ([1]; resveratrol alone, FIG. 1C) | change in AP activity ([2]; 10^−6M resveratrol alone over days 0-6, 0-2, 2-4 or 4-6) | increase in AP activity in comparison to TCDD alone ([2]; resveratrol 10^−5M, 10^−6M and 10^−7M with TCDD, FIG. 2a) | effect on TCDD-induced decrease in mineralization ([3]; resveratrol with TCDD) | abrogation of TCDD effects on APA ([4]; resveratrol 10^−6 molar in alcohol, added together or singly between days 4-10, FIG. 9) | effect on APA ([4]; resveratrol alone)
1 | Clc1cc2c(cc1Cl)Oc1cc(Cl)c(Cl)cc1O2 [TCDD, 2,3,7,8-tetrachlorodibenzo-p-dioxin] | obvious changes in bone formation | 53 | did not significantly alter AP activity | 80 | dose dependant reduction in mineralization | approximately 75% | ~50 | – | – | – | – | – | – | –
2 | Oc1ccc(C=Cc2cc(O)cc(O)c2)cc1 [resveratrol, 3,5,4′-trihydroxystilbene] | – | – | – | – | – | – | – | complete reversal of the TCDD effect | large deposits of bone similar to the control cultures | No significant change in AP activity | 2-4 fold | attenuated | completely abrogated the effects of TCDD | no significant effects
